Laboratory results: article PMC9034499, “RORγt agonist enhances anti-PD-1 therapy by promoting monocyte-derived dendritic cells through CXCL10 in cancers” (Journal of Experimental & Clinical Cancer Research : CR, 2022)

Experiments:
mouse Th17 cells = assay: IL-17A secretion by Th17 cells (ELISA); type: cell-based; conditions: ELISA of supernatant, 0 to 160 nM
Description: CD4^+ CD25^−CD62L^high cells were purified from C57BL/6 splenocytes using an EasySep Mouse Naïve CD4^+ T cell isolation kit from STEMCELL Technologies (Vancouver, Canada), and they were differentiated into Th17 cells (TGF-β, 2 ng/ml; IL-6, 20 ng/ml; Anti-IFN-γ, 10 μg/ml; Anti-IL-4, 10 μg/ml, BioLegend, San Diego, CA) in the presence of plate-bound anti-CD3 (5 μg/ml, BioLegend, San Diego, CA) and anti-CD28 (2 μg/ml, BioLegend, San Diego, CA). The cells were harvested and processed for cytokine analysis at the RNA or protein level using real-time qPCR, flow cytometry, and ELISA on day five. […]
The intracellular cytokines by TILs or in vitro differentiated T helper cells were quantified after restimulation with PMA plus ionomycin in the presence of GolgiStop for 6 h. The total RNA was isolated using the improved TRizol-based (Sigma, Darmstadt, Germany) method for qPCR analysis, and the mRNA expression was analyzed using a StepOnePlus (Life Technologies, Carlsbad, USA) real-time PCR instrument using housekeeping gene β-actin and Gapdh internal standards. qPCR was performed using A Power SYBR Green PCR Master Mix (Accurate Biology, Hunan, China) and two-cycle amplification for 40 cycles followed by the melting curve. […]

[1] = system: Tc17 cells (CD8+ T cells); assay: Murine Tc17 differentiation, flow cytometry; type: cell-based, mouse; conditions: Tc17, intracellular staining, same concentration
Description: CD4^+ CD25^−CD62L^high cells were purified from C57BL/6 splenocytes using an EasySep Mouse Naïve CD4^+ T cell isolation kit from STEMCELL Technologies (Vancouver, Canada), and they were differentiated into Th17 cells (TGF-β, 2 ng/ml; IL-6, 20 ng/ml; Anti-IFN-γ, 10 μg/ml; Anti-IL-4, 10 μg/ml, BioLegend, San Diego, CA) in the presence of plate-bound anti-CD3 (5 μg/ml, BioLegend, San Diego, CA) and anti-CD28 (2 μg/ml, BioLegend, San Diego, CA). The cells were harvested and processed for cytokine analysis at the RNA or protein level using real-time qPCR, flow cytometry, and ELISA on day five. Alternatively, splenocytes from OT-I mice were activated using OVA-derived peptides SIINFEKL (50 ng/ml, Sangon Biotech, Shanghai, China) and polarized to Tc17 cells using cytokine TGF-β (2 ng/ml, BioLegend, San Diego, CA) and IL-6 (20 ng/ml, BioLegend, San Diego, CA) for four or five days.
Cells were stained with fluorochrome-labeled anti-mouse Ab such as CD45, CD3, CD4, CD8, Foxp3, IFN-γ, IL-17A, CD11b, CD11c, pAKT, pSTAT3, CCR6, or MHCII. […] Cells were acquired using the FACS Aria II machine and analyzed using FlowJo software.

Th1 cells = assay: Th1 specificity, IFN-γ by flow cytometry; type: cell-based, C57BL/6 wild-type mice; conditions: compared with vehicle alone
Source text: To confirm the in vitro specificity of 8-074, splenocytes from C57BL/6 wild-type mice were activated by plate-bound anti-CD3 and anti-CD28 antibodies and polarized with anti-IL-4 and IL-12 to obtain Th1 cells. IFN-γ, a signature cytokine of Th1 cells, was not affected by LYC-55716 or 8-074 compared with vehicle alone (Fig. 2j, Fig. S2g).

LLC tumors = assay: LLC syngeneic tumor model; type: in vivo, C57BL/6 mice
Description: All experiments were approved by the IACUC and performed with strict adherence to a series of documents and standards of procedures (SOPs) relative to animal ethics and welfare. The mice were housed in cages with controlled temperature (25 ± 2 °C) and humidity (65 ± 5%) under a 12 h light/dark cycle. After a one-week adaptation period, six to eight-week-old female mice were injected s.c. with LLC (5 × 10^5), B16F10 (2 × 10^5), or MC38 (2 × 10^6) cells into the lower right flank. Approximately seven days after the subcutaneous injection of tumor cells, the mice were randomly divided into four groups. RORγt agonist 8-074, LYC-55716 (BioChemPartner, Shanghai, China) and anti-PD-1 (BioXCell, New Hampshire, USA) treatment commenced when the average tumor size reached 50 mm^3 for LLC and B16F10 and 150 mm^3 for MC38. The 5 × 10^5 LLC cells were transplanted subcutaneously into the right flank of the C57BL/6 mice seven days after being transplanted, and the mice were randomly divided into four groups. Anti-PD-1 was administrated one day after the RORγt agonist was treated (Clone: PMP1-14; 200 μg via intraperitoneal injection on day 1, 4, 7, 10, 13 after treatment with 8-074). For the CD8^+ T cell depletion, mice were injected intraperitoneally (i.p.) with 400 μg of anti-CD8α (YTS 169.4; BioXCell, New Hampshire, USA) one day before and dosed per week after the anti-PD-1 treatment. Mice with established tumors were treated using intraperitoneal injection of 8-074 (indicated dose), LYC-55716 (50 mg/kg) or DMSO (SIGMA, New Jersey, USA) every day. […] The tumor volume based on the caliper measurements was calculated using the modified ellipsoidal equation, where the tumor volume = 1/2 (length × width ^2) and the length was the longer dimension. […] TGI was calculated using the equation: [(Ct – C0) – (Tt – T0)] / (Ct – C0) × 100, where Ct = the mean tumor volume of the control group at the time (t); C0 = the mean tumor volume of the control group at t0; Tt = mean tumor volume of the treatment group at t; and T0 = mean tumor volume of the treatment group at t0.

SMILES: CCS(=O)(=O)c1ccc(CC(=O)Nc2ccc(-c3ccc(CC(C)C)c(C#N)c3)c(C(F)(F)F)c2)cc1 [8-074]
- EC50 (mouse Th17 cells): 22.8 nM
- percentage of CD8+ T cells that express IL-17A [1]: 50.4%
- IFN-γ, signature cytokine of Th1 cells (Th1 cells): not affected
- TGI (LLC tumors; LLC combination study Fig. 3e, anti-PD-1 10 mg/kg every three days i.p., 8-074 i.p. every day): 59.3%
- body weight of mice (LLC tumors; LLC model, dose escalation): slight body weight loss
- Tumor growth inhibition (TGI) (LLC tumors; LLC, 50 mg/kg i.p. QD over two weeks, Fig. 3a): 55.6%
